# Test results: patent publication US6384041B1, “Bicyclic sPLA2 inhibitors” (Eli Lilly and Company, priority 1998, dated 2002)
# Where two headings read alike, the source gives them in different places.
# Biological target: T1, recombinant human secreted phospholipase A2 (Homo sapiens, UniProt P14555)
# T1 sequence (P14555 21-144): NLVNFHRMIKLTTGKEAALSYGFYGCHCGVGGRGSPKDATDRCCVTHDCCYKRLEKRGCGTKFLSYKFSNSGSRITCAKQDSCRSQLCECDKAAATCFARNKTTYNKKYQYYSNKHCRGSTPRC
# Experiment: Human Recombinant hnp-sPLA2 Chromogenic Assay
# Format: biochemical
# From the text: The following chromogenic assay procedure was used to identify and evaluate inhibitors of recombinant human secreted phospholipase A2.The assay described herein has been adapted for high volume screening using 96 well microtiter plates. A general description of this assay method is found in the article, “Analysis of Human Synovial Fluid Phospholipase A2 on Short Chain Phosphatidylcholine-Mixed Micelles: Development of a Spectrophotometric Assay Suitable for a Microtiterplate Reader”, by Laure J. Reynolds, Lori L. Hughes, and Edward A Dennis, Analytical Biochemistry, 204, pp. 190-197, 1992 (the disclosure of which is incorporated herein by reference): Reagents:
# Bovine Serum Albumin (fatty acid free) (1 g/L)
# (Sigma A-7030, product of Sigma Chemical Co. St. Louis Mo., USA) […]
# pH 7.5 (adjust with NaOH)
# Adjust pH to 4.5 with acetic acid
# DTNB—5,5′-dithiobis-2-nitrobenzoic acid
# Racemic Diheptanoyl Thio-PC racemic 1,2-bis(heptanoylthio)-1,2-dideoxy-sn-glycero-3-phosphorylcholine TRITON X-100™ prepare at 6.249 mg/ml in reaction buffer to equal […].
# A measured volume of racemic dipheptanoyl thio PC supplied in chloroform at a concentration of 100 mg/ml is taken to dryness and redissolved in 10 millimolar TRITON X-100™ nonionic detergent aqueous solution.
# Reaction Buffer is added to the solution, then DTNB to give the Reaction Mixture.
# The reaction mixture thus obtained contains lmM diheptanoly thio-PC substrate, 0.29 mm Triton X-100™ detergent, and 0.12 mm DTMB in a buffered aqueous solution at pH 7.5.
# 1. Add 0.2 ml reaction mixture to all wells;
# 2. Add 10 ul test compound (or solvent blank) to appropriate wells, mix 20 seconds;
# 3. Add 50 nanograms of sPLA2 (10 microliters) to appropriate wells;
# 4. Incubate plate at 40° C. for 30 minutes;
# 5. Read absorbance of wells at 405 nanometers with an automatic plate reader.
# All compounds were tested in triplicate. Typically, compounds were tested at a final concentration of 5 ug/ml. […] Lack of color development at 405 nanometers evidenced inhibition. Compounds initially found to be active were reassayed to confirm their activity and, if sufficiently active, IC50 values were determined. […] In all cases, % inhibition measured at 405 nanometers generated by enzyme reactions containing inhibitors relative to the uninhibited control reactions was determined. Each sample was titrated in triplicate and result values were averaged for plotting and calculation of IC50 values. IC50 were determined by plotting log concentration versus inhibition values in the range from 10-90% inhibition.
# [1] = chromogenic assay, diheptanoyl thio-PC substrate, pH 7.5, 40° C. for 30 minutes, absorbance at 405 nm, average of n = 3-4, read-out: IC50 (micro-molar) n = 3 − 4 (ave)
Compound,IC50,IC50 [1]
"CCc1c(C(=O)C(N)=O)c2c(OCC(=O)O)nc(SC)nc2n1Cc1cccc(F)c1 [—H|—S-methyl|m-F-phenyl, [[2-(methylthio)-5-(aminooxoacetyl)-6-ethyl-7-[(3-fluorophenyl)methyl]-7H-pyrrolo[2,3-d]pyrimidin-4-yl]oxy]acetic acid]",16 nM,
"CCc1c(C(=O)C(N)=O)c2c(OCC(=O)O)nc(Sc3ccccc3)nc2n1Cc1ccccc1 [—H|—S-phenyl|phenyl, [[2-(phenylthio)-5-(aminooxoacetyl)-6-ethyl-7-(phenylmethyl)-7H-pyrrolo[2,3-d]pyrimidin-4-yl]oxy]acetic acid]",11 nM,
"CCc1c(C(=O)C(N)=O)c2c(OCC(=O)O)ncnc2n1Cc1cccc(F)c1 [—H|—H|m-F-phenyl, [[5-(aminooxoacetyl)-6-ethyl-7-[(3-fluorophenyl)methyl]-7H-pyrrolo[2,3-d]pyrimidin-4-yl]oxy]acetic acid]",98 nM,
"CCc1c(C(=O)C(N)=O)c2c(OCC(=O)O)nc(OC)nc2n1Cc1ccccc1 [—H|—O—CH3|phenyl, [[2-methoxy-5-(aminooxoacetyl)-6-ethyl-7-(phenylmethyl)-7H-pyrrolo[2,3-d]pyrimidin-4-yl]oxy]acetic acid]",46 nM,
"CCc1c(C(=O)C(N)=O)c2c(OCC(=O)O)ncnc2n1Cc1ccccc1-c1ccccc1 [—H|—H|o-phenyl-phenyl, [[5-(aminooxoacetyl)-6-ethyl-7-([1,1′-biphenyl]-2-ylmethyl)-7H-pyrrolo[2,3-d]pyrimidin-4-yl]oxy]acetic acid]",,114 nM
"CCc1c(C(=O)C(N)=O)c2c(OCC(=O)O)nc(SC)nc2n1Cc1cccc(Cl)c1 [—H|—S-methyl|m-Cl-phenyl, [[2-(methylthio)-5-(aminooxoacetyl)-6-ethyl-7-[(3-chlorophenyl)methyl]-7H-pyrrolo[2,3-d]pyrimidin-4-yl]oxy]acetic acid]",19 nM,
"CCc1c(C(=O)C(N)=O)c2c(OCC(=O)O)nc(SC)nc2n1Cc1ccccc1-c1ccccc1 [—H|—S-methyl|o-phenyl-phenyl, [[2-(methylthio)-5-(aminooxoacetyl)-6-ethyl-7-([1,1′-biphenyl]-2-ylmethyl)-7H-pyrrolo[2,3-d]pyrimidin-4-yl]oxy]acetic acid]",9 nM,
"CCc1c(C(=O)C(N)=O)c2c(OCC(=O)O)nc(SC)nc2n1Cc1ccccc1 [—H|—SCH3|phenyl, [[2-(methylthio)-5-(aminooxoacetyl)-6-ethyl-7-(phenylmethyl)-7H-pyrrolo[2,3-d]pyrimidin-4-yl]oxy]acetic acid]",19 nM,
"CCc1c(C(=O)C(N)=O)c2c(OCC(=O)O)ncnc2n1Cc1ccccc1 [—H|—H|phenyl, [[5-(aminooxoacetyl)-6-ethyl-7-(phenylmethyl)-7H-pyrrolo[2,3-d]pyrimidin-4-yl]oxy]acetic acid]",48 nM,
"CCc1c(C(=O)C(N)=O)c2c(OCC(=O)OC)nc(C)nc2n1Cc1ccccc1 [—CH3|—CH3|phenyl, [[2-methyl-5-(aminooxoacetyl)-6-ethyl-7-(phenylmethyl)-7H-pyrrolo[2,3-d]pyrimidin-4-yl]oxy]acetic acid methyl ester]",,4650 nM
"CCc1c(C(=O)C(N)=O)c2c(OCC(=O)O)ncnc2n1Cc1cccc(C(F)(F)F)c1 [—H|—H|m-CF3-phenyl, [[5-(aminooxoacetyl)-6-ethyl-7-[[3-(trifluoromethyl)phenyl]methyl]-7H-pyrrolo[2,3-d]pyrimidin-4-yl]oxy]acetic acid]",,124 nM
"CCc1c(C(=O)C(N)=O)c2c(OCC(=O)OC)ncnc2n1Cc1ccccc1 [—CH3|—H|phenyl, [[5-(aminooxoacetyl)-6-ethyl-7-(phenylmethyl)-7H-pyrrolo[2,3-d]pyrimidin-4-yl]oxy]acetic acid methyl ester]",,5460 nM
"CCc1c(C(=O)C(N)=O)c2c(OCC(=O)O)nc(SC)nc2n1Cc1cccc(C(F)(F)F)c1 [—H|—S-methyl|m-CF3-phenyl, [[2-(methylthio)-5-(aminooxoacetyl)-6-ethyl-7-[[3-(trifluoromethyl)phenyl]methyl]-7H-pyrrolo[2,3-d]pyrimidin-4-yl]oxy]acetic acid]",13 nM,
"CCc1c(C(=O)C(N)=O)c2c(OCC(=O)O)ncnc2n1Cc1cccc(Cl)c1 [—H|—H|m-Cl-phenyl, [[5-(aminooxoacetyl)-6-ethyl-7-[(3-chlorophenyl)methyl]-7H-pyrrolo[2,3-d]pyrimidin-4-yl]oxy]acetic acid]",91 nM,
"CCc1c(C(=O)C(N)=O)c2c(OCC(=O)O)nc(C)nc2n1Cc1ccccc1 [—H|—CH3|phenyl, [[2-methyl-5-(aminooxoacetyl)-6-ethyl-7-(phenylmethyl)-7H-pyrrolo[2,3-d]pyrimidin-4-yl]oxy]acetic Acid]",88 nM,
